Assay [1] concerns the target T1, bPepT1 (Bos taurus, UniProt A5D7E5).
T1 construct: expressed in transfected cells; host or cells: CHO cells, transient transfection with pcDNA3.1-bPepT1
T1 sequence (A5D7E5 1-707): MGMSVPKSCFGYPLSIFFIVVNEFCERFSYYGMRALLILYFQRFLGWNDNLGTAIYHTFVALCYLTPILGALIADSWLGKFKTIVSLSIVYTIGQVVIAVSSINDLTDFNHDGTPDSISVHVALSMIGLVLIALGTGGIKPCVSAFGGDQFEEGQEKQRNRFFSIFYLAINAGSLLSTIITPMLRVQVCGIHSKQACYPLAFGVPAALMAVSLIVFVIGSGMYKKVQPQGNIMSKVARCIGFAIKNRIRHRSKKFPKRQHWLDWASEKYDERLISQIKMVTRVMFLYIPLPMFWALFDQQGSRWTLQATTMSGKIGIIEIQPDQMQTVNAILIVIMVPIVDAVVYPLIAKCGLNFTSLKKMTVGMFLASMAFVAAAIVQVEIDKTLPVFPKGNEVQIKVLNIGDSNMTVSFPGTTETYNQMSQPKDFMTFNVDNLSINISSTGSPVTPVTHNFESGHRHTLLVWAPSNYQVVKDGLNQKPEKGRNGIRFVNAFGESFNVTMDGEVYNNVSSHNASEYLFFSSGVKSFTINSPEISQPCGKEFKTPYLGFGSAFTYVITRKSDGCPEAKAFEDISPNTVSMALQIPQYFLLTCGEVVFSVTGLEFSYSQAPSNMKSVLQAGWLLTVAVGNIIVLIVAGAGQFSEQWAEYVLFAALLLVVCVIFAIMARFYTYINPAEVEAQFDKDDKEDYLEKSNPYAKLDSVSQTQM
Put plainly: Inhibition of [3H]-Gly-Sar uptake in bPepT1-transfected CHO cells. Format: cell-based, bovine (dairy cows). The note with it: for IC50: read-out: IC50 (inhibition of [3H]-Gly-Sar uptake), Bovine. The protocol:
(§1) The CHO cells were cultured in F12 Ham’s medium that contained 10% FBS. All cell cultures were maintained at 37 °C and 5% CO2 in a humidified atmosphere. The culture medium was changed every other day. One day before transfection, the CHO cells were passaged and plated onto 12-well plates at a density of 5.0 × 10^4 cells/well. The bPepT1 cDNA [19] was cloned into the pcDNA3.1 expression vector (Invitrogen, Carlsbad, USA). When the CHO cells were cultured to approximately 70–90% confluence, the cells were transfected with the pcDNA3.1-bPepT1 vector or the pcDNA3.1 vector as a control. For each well, 1 μg of DNA was mixed with 2 μL of P3000™ and 1 μL of Lipofectamine 3000 (Invitrogen, Carlsbad, USA) in 50 μL of OPTI-MEM and incubated at room temperature for 5 min. Then, the DNA-lipid complex was added into each well and the cells were transfected for 24 h.
(§2) The transport activity of bPepT1 was determined using [^3H]-Gly-Sar (3.7 × 10^4 Bq/mL), a well-known hydrolysis-resistant peptide substrate, in transiently transfected CHO cells. The transfected cells were washed three times with uptake buffer at pH 6.0 which contained 140 mmol/L NaCl, 5.4 mmol/L KCl, 0.8 mmol/L MgSO4, 1.8 mmol/L CaCl2, 5 mmol/L glucose, and 25 mmol/L MES. Then, the cells were preincubated with the buffer for 30 min at 37 °C.
For the transport time study, the transfected CHO cells were incubated with 0.02 mmol/L of [^3H]-Gly-Sar (3.7 × 10^4 Bq/mL) for various times (1, 5, 10, 20, 40, and 60 min). For the pH dependency study, the pH of the uptake buffer was adjusted to various pH (5.0, 5.5, 6.0, 6.5, 7.0, and 7.5) with HEPES/Tris or MES/Tris. For the transport kinetic study, Gly-Sar was prepared at various concentrations (0.02–10 mmol/L) with 3.7 × 10^4 Bq/mL [^3H]-Gly-Sar. For the inhibition study, 15 small peptides that contained essential AA at five concentrations (0.001–10 mmol/L) were added into the uptake buffer with [^3H]-Gly-Sar, and they were incubated with the CHO cells for 5 min. Then, the concentration of unlabeled peptide that inhibited 50% of [^3H]-Gly-Sar uptake (IC50) was calculated using PRISM software (GraphPad, San Diego, CA, USA). Uptake was stopped by washing with ice-cold uptake buffer. The cells were lysed by adding 0.5 mL lysis buffer that contained 1% Triton X-100, followed by incubation at 37 °C for 60 min. The radioactivity of the cell lysate was measured using liquid scintillation counting (LSC, Wallac1414, Wallac Co., Turku, Finland). The total protein of the cell lysate was determined using a BCA Protein Assay Kit (Beyotime). The uptake was expressed as nmol/(mg protein • 5 min).

For a further assay, the system named is CHO cells. In words: [3H]-Gly-Sar uptake in CHO cells transfected with pcDNA3.1 control vector. Format: cell-based, Chinese hamster. The note with it: 0.02 mmol/L, 1–60 min, n = 5. The protocol:
as §1, with “Then, the DNA-lipid complex was added into each well and the cells were transfected for 24 h.” left out
(§3) The transport activity of bPepT1 was determined using [^3H]-Gly-Sar (3.7 × 10^4 Bq/mL), a well-known hydrolysis-resistant peptide substrate, in transiently transfected CHO cells. […]
(§4) For the transport time study, the transfected CHO cells were incubated with 0.02 mmol/L of [^3H]-Gly-Sar (3.7 × 10^4 Bq/mL) for various times (1, 5, 10, 20, 40, and 60 min). […] The radioactivity of the cell lysate was measured using liquid scintillation counting (LSC, Wallac1414, Wallac Co., Turku, Finland). The total protein of the cell lysate was determined using a BCA Protein Assay Kit (Beyotime). The uptake was expressed as nmol/(mg protein • 5 min).

Assay [2] has as its target T1, bPepT1. Put plainly: Time course of [3H]-Gly-Sar uptake in transfected CHO cells. The note with it: 0.02 mmol/L; 1–60 min; 24 h after transfection with bPepT1; n = 5. Format: cell-based, bovine (dairy cows). The protocol: as §1, with “Then, the DNA-lipid complex was added into each well and the cells were transfected for 24 h.” left out
as §3, §4

Assay [3] concerns chicken PepT1. Conditions: ref [15], read-out: Km for Gly-Sar, chickens; cited from earlier work. The source says:
(§5) These features of bPepT1 met the requirement for transporting a large number of various small peptides. The str ...

The test system of assay [4] is sheep PepT1. The note with it: ref [14], read-out: Km for Gly-Sar, sheep; cited from earlier work.
Description: as §5

Assay [5] addresses T1, bPepT1. Put plainly: pH dependency of Gly-Sar uptake in bPepT1-transfected CHO cells. The note with it: 0.02 mmol/L [3H]-Gly-Sar; pH 5.0–7.5; 5 min; n = 4; P < 0.05. The class given is cell-based, bovine (dairy cows). How it is done:
as §1, with “Then, the DNA-lipid complex was added into each well and the cells were transfected for 24 h.” left out
as §3, §4

Assay [6] has as its target T1, bPepT1. Put plainly: Gly-Sar transport kinetics in bPepT1-transfected CHO cells. Format: cell-based, bovine (dairy cows). The note with it: 5 min, n = 6. How it is done:
as §1, §2
For the transport time study, the transfected CHO cells were incubated with 0.02 mmol/L of [^3H]-Gly-Sar (3.7 × 10^4 Bq/mL) for various times (1, 5, 10, 20, 40, and 60 min). For the pH dependency study, the pH of the uptake buffer was adjusted to various pH (5.0, 5.5, 6.0, 6.5, 7.0, and 7.5) with HEPES/Tris or MES/Tris. For the transport kinetic study, Gly-Sar was prepared at various concentrations (0.02–10 mmol/L) with 3.7 × 10^4 Bq/mL [^3H]-Gly-Sar. […] The radioactivity of the cell lysate was measured using liquid scintillation counting (LSC, Wallac1414, Wallac Co., Turku, Finland). The total protein of the cell lysate was determined using a BCA Protein Assay Kit (Beyotime). The uptake was expressed as nmol/(mg protein • 5 min).

Another assay relates to pig PepT1. The note with it: CHO cells transfected with pig PepT1 cDNA; CBD = cannot be determined; ref Klang et al. [17]; cited from earlier work. The text has this:
Table 1 Kinetic parameters of CHO cells transfected with bovine, sheep, pig, and chicken PepT1 cDNA | column: IC50, mmol/L / Pig^d

Assay [7] has as its system sheep PepT1. Conditions: CHO cells transfected with sheep PepT1 cDNA; ref Chen et al. [14]; cited from earlier work. The source says:
Table 1 Kinetic parameters of CHO cells transfected with bovine, sheep, pig, and chicken PepT1 cDNA | column: IC50, mmol/L / Sheep^c

The test system of assay [8] is chicken PepT1. The note with it: CHO cells transfected with chicken PepT1 cDNA; ref Chen et al. [15]; cited from earlier work. The source says:
Table 1 Kinetic parameters of CHO cells transfected with bovine, sheep, pig, and chicken PepT1 cDNA | column: IC50, mmol/L / Chicken^e

Where [9] appears, read: 0.02 mmol/L [3H]-Gly-Sar (3.7 × 10^4 Bq/mL), unlabeled peptide 0.001–10 mmol/L, pH 6.0, 5 min, liquid scintillation counting, n = 4 (Fig. 6), CBD = cannot be determined.

Peptide text beside a SMILES is read from it.

Broadly, the IC50 is the concentration at which inhibition is half-maximal. The term Km denotes the substrate concentration at which the rate is half of its maximum.

Turning to `NCCCC[C@H](N)C(=O)N[C@@H](Cc1ccccc1)C(=O)O` [Lys-Phe], the IC50 at bPepT1 [1] (setting [9]) was determined as 90 µM. In the case of `CSCC[C@H](N)C(=O)N[C@@H](CC(C)C)C(=O)O` [Met-Leu] (H-Met-Leu-OH), the IC50 on bPepT1 [1] (setting [9]) is 80 µM.

As for glycyl-sarcosine [Gly-Sar], the “[3H]-Gly-Sar uptake in control-vector cells” value in the assay with CHO cells was “only marginal, and it was much lower than in CHO cells that were transfected with the bPepT1 expression vector”. The “Time course of [3H]-Gly-Sar uptake” value on bPepT1 [2] is “increased rapidly and linearly in the first 10 min and reached a plateau subsequently”. Besides, the Km with chicken PepT1 [3] is 2600 ± 300 µM; in the assay with sheep PepT1 [4], 1000 ± 100 µM; on bPepT1 [6] (Gly-Sar 0.02–10 mmol/L with 3.7 × 10^4 Bq/mL [3H]-Gly-Sar, 37 °C preincubation, Michaelis–Menten, mean ± SEM), 940 ± 60 µM. Further, the “pH dependency of [3H]-Gly-Sar uptake” value on bPepT1 [5] was “pH-dependent and greater at pH 6.5 and 7.0 than at pH 5.5 and 6.0 which was greater than at pH 5.0 and 7.5”. Further, the “maximum velocity (Vmax)” value at bPepT1 [6] (Gly-Sar 0.02–10 mmol/L with 3.7 × 10^4 Bq/mL [3H]-Gly-Sar, Michaelis–Menten, mean ± SEM) is on record as 20.80 ± 1.74 nmol/(mg protein • 5 min). Besides, the “Gly-Sar concentration at which transport was saturated” value on bPepT1 [6] (Gly-Sar 0.02–10 mmol/L) amounted to 5 mmol/L. `CC(C)C[C@H](N)C(=O)NCC(=O)NCC(=O)O` [Leu-Gly-Gly] (H-Leu-Gly-Gly-OH): the IC50 at bPepT1 [1] (setting [9]) was determined as 2070 µM. In the case of `NCC(=O)O` [Gly], at bPepT1 [1] (0.02 mmol/L [3H]-Gly-Sar, pH 6.0, 5 min), the “Inhibition of [3H]-Gly-Sar uptake (in words)” value is reported as “not inhibited”. As for `CSCC[C@H](N)C(=O)N[C@@H](CCC(=O)O)C(=O)O` [Met-Glu] (H-Met-Glu-OH), the IC50 at bPepT1 [1] (setting [9]) is 23 µM. Consider `CSCC[C@H](N)C(=O)N[C@@H](CCCCN)C(=O)O` [Met-Lys] (H-Met-Lys-OH), for which the IC50 on bPepT1 [1] (setting [9]) is 20 µM. As for `NCCCC[C@H](NC(=O)CN)C(=O)O` [Gly-Lys] (H-Gly-Lys-OH), the IC50 on bPepT1 [1] (setting [9]) was found to be 78 µM.

Turning to `NCCCC[C@H](NC(=O)[C@H](Cc1c[nH]c2ccccc12)NC(=O)[C@@H](N)CCCCN)C(=O)O` [Lys-Trp-Lys] (H-Lys-Trp-Lys-OH; N-terminus and C-terminus assumed), the “IC50 (inhibition of [3H]-Gly-Sar uptake), Bovine” value against bPepT1 [1] (setting [9]) was “CBD”. Moreover, the IC50 is > 2070 µM at bPepT1 [1] (setting [9]), 2200 µM with pig PepT1, 3730 µM in the assay on sheep PepT1 [7] and 5900 µM in the assay with chicken PepT1 [8]. In addition, the “Favorability as substrate / affinity for bPepT1 (in words)” value on bPepT1 [1] (judged from IC50 values) is reported as “less favorable substrates for bPepT1”. For `CSCC[C@H](NC(=O)[C@@H](N)CCSC)C(=O)O` [Met-Met] (H-Met-Met-OH), the half-inhibitory concentration (IC50) at bPepT1 [1] (setting [9]) worked out at 96 µM.

Turning to `CSCC[C@H](NC(=O)CN)C(=O)O` [Gly-Met], the IC50 on bPepT1 [1] (setting [9]) worked out at 32 µM. With `NCCCC[C@H](NC(=O)[C@@H](N)CCCCN)C(=O)O` [Lys-Lys], the IC50 at bPepT1 [1] (setting [9]) came out at 9650 µM. Turning to `CSCC[C@H](N)C(=O)N[C@@H](CC(C)C)C(=O)N[C@@H](Cc1ccccc1)C(=O)O` [Met-Leu-Phe], the IC50 at bPepT1 [1] (setting [9]) was determined as 50 µM.

Consider `CSCC[C@H](NC(=O)[C@H](CCSC)NC(=O)CNC(=O)[C@@H](N)CCSC)C(=O)O` [Met-Gly-Met-Met] (H-MGMM-OH), for which the 50% inhibitory concentration (IC50) on bPepT1 [1] (setting [9]) turned out to be 6040 µM. For the compound `CSCC[C@H](NC(=O)[C@@H](N)CCCCN)C(=O)O` [Lys-Met], at bPepT1 [1] (setting [9]), the IC50 came out at 32 µM.

Turning to `N[C@@H](Cc1c[nH]c2ccccc12)C(=O)N[C@@H](Cc1ccccc1)C(=O)O` [Trp-Phe] (H-Trp-Phe-OH), the concentration for half-maximal inhibition (IC50) at bPepT1 [1] (setting [9]) is 14 µM. `CSCC[C@H](N)C(=O)NCC(=O)O` [Met-Gly] (H-Met-Gly-OH): the IC50 at bPepT1 [1] (setting [9]) was found to be 58 µM.

The values above are taken from paper PMC5778758, “Functional characterization of oligopeptide transporter 1 of dairy cows” (Journal of Animal Science and Biotechnology, 2018).
